Measurements: patent US11384115B2, “Nuclear sulfated oxysterol, potent regulator of lipid homeostasis, for therapy of hypercholesterolemia, hypertriglycerides, fatty liver diseases, and atherosclerosis” (Virginia Commonwealth University, priority 2004, dated 2022)
Where two headings read alike, the source gives them in different places.

Tests used:
[1] = Single peritoneal injection in mice, serum lipids and serum enzymes; assay type: in vivo
Method: Administration to female mice (20-25 g weight) was by peritoneal injection once with or without 72 μg of the nuclear oxysterol in 100 μl of 0.9% NaCl containing 3 μl of ethanol. Twelve hrs following the injection, blood was harvested for analysis of triglycerides and cholesterol.

HMG CoA reductase = experiment: Western blot of HMG CoA reductase protein in HepG2 cells; assay type: cell-based, human
Method: FIGS. 15A-15D. 25HC3S regulates HMGR mRNA Expression. Real time RT-PCR analysis of HMG CoA R reductase expression in HepG2 cells (FIGS. 15A and 15B). Western blot analysis of protein levels of HMG CoA reductase (FIG. 15C). Total RNAs were purified using SV Total RNA Isolation Kit (Promega) from the cells treated with 25HC3S at concentrations as indicated (FIG. 15A) and incubation at 12 μM of 25HC3S for the different times (effect on HMG CoA mRNA) (FIG. 15B). Two μg of total RNA was used for cDNA preparation (RT) and performed as manufacture recommended (Invitrogen), and 10 ng of cDNA was used for real time PCR. The expression levels were normalized to GAPDH. The bands of HMG CoA reductase (HMGR) were quantitated by laser density scanning. Each value represents mean of three experiments±standard derivation.
Microsomal proteins (80 μg) were separated on a 7.5% SDS-polyacrylamide denaturing gel according to the method of Laemmli (14). Following SDS-PAGE (Hoefer Vertical Slab Gel Unit; Heofer, San Francisco, Calif.), proteins were electrophoretically transferred overnight (4° C.) to Immobilon-P membranes using a Hoefer Trans Blot Electrophoretic Transfer cell. The membranes were then blocked for 90 minutes (25° C.) in blocking buffer (PBS, pH 7.4, 0.1% Tween, 5% non-fat dry milk). […] Protein bands were detected using the Amersham ECL plus Kit.

[2] = Water solubility (statement); assay type: physicochemical
[3] = tested on: ABCA1, ABCG1, ABCG5, ABCG8 gene expression; experiment: LXR targeting gene expression by real time RT-PCR in primary hepatocytes; assay type: cell-based, mouse
Text: FIG. 10. ABCA1 (A1), ABCG1 (G1), LDL receptor (LDLR), ABCG5 (G5), and ABCG8 (G8) gene expression in primary mouse hepatocytes following addition of the purified nuclear oxysterol. At 24 hrs following the addition, cells were harvested and total RNAs were extracted and gene expression levels were quantitated by real time RT-PCR. β-Actin mRNA was used as total mRNA internal standard. The gene expression levels in cells […] were compared with those in control cells. Ten μg of total RNA was used for cDNA preparation (RT) and 10 ng of cDNA was used for PCR. The expression levels were normalized to β-actin.
Preliminary experiments have shown that the purified nuclear oxysterol up-regulates bile acid synthesis. To further investigate the mechanism of this activity, the effect of purified 5-cholesten-3β, 25-diol 3-sulphate on gene expression of LXR-targeted cholesterol transport proteins ABCA1, ABCG1, ABCG5, ABCG8, and LDLR was investigated. Purified nuclear sulfated oxysterol was added to primary hepatocytes in culture, and mRNA levels of the transport proteins were quantitated by real time RT-PCR. The primer sets and TagMan probes for detection of mRNA levels were purchased from AB Applied Biosystem (Foster City, Calif.) and the reactions were performed on an MJ Research DNA Engine Opticon instrument.

PPARγ [4] = biological target: T1, PPARγ (Homo sapiens, UniProt P37231); experiment: Confocal immunofluorescence of intracellular PPARγ distribution in THP-1 macrophages; assay type: cell-based; settings: compared with DMSO; 25 μM 25HC3S, 1 μM T0070907
T1 construct: THP-1 monocytes were differentiated to macrophages by adding 100 nM of phorbol 12-myristate 13-acetate (PMA); endogenous in cells; host or cells: THP-1 monocyte-derived macrophages (human, ATCC)
T1 sequence (P37231 1-505): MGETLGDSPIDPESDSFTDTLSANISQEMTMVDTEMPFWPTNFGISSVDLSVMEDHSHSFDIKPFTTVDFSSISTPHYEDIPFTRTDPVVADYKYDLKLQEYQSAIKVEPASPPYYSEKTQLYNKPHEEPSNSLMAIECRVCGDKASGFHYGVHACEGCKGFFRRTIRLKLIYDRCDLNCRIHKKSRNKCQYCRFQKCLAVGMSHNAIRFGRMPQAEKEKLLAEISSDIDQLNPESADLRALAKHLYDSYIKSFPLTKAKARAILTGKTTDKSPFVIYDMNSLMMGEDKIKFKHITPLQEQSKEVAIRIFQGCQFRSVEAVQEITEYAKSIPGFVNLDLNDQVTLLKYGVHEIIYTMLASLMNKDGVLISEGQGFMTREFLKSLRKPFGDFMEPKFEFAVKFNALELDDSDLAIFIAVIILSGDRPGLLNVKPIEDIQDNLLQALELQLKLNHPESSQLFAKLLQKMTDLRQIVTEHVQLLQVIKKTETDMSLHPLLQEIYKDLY
Method: Confocal microscopy analysis of intracellular translocation of PPARγ protein distribution. The nuclear marker was stained with DAP1 and PPARγ protein was detected by anti-PPARγ immunofluorescence.
THP-1 derived macrophages were cultured on coverslips in six-well plates and treated with different concentrations of 25HC and 25HC3S for 4 hrs. The cells on coverslips were washed with PBS, fixed with 3.7% formaldehyde for 10 min at 4° C., and then rinsed three times with PBS at room temperature. They were then permeabilized with PBS containing 0.1% of TritonX-100 for 3 min and washed with PBS before blocking by incubation with 5% of normal goat serum in PBS overnight at 4° C. For interaction with primary antibodies, cells were incubated with 2.5% normal goat serum in PBS containing PPARγ antibody for 1 hr in an incubator. Cells were washed in PBS containing 0.05% of Tween 20 (3×10 min). The bound primary antibodies were visualized with Alexa Fluor 488 goat anti-mouse IgG. The minor groove of double stranded DNA as a nuclear marker was stained by DAPI. Afterwashing, coverslips were mounted on slides and viewed with a Zeiss LSM 510 Meta confocal microscope.

PPARγ [5] = experiment: PPRE promoter reporter gene-luciferase assay in H441 cells; assay type: cell-based, human
Method: H441 cells were seeded in 96-well plates. When cell density reached 90-95%, the cells were transfected with an expression plasmid as indicated using a lipid-based FuGENE HD transfection reagent according to the manufacture (Roche, Indianapolis, Ind.). A synthetic renilla luciferase reporter, phrG-TK (Promega, Wisconsin, Wis.), was used as a luciferase internal standard. For PPRE reporter gene assay, 50 ng of pGL3-PPRE-acyl-CoA oxidase luciferase reporter, 50 ng of expression plasmid pCMX-PPARγ, and 50 ng of phrG-TK vector (internal standard) were cotransfected as per the manufacture's instruction. […] Luciferase activities were determined using the Dual-Glo Luciferase Assay System according to the manufacturer's protocol (Promega, Wisconsin, Wis.). The amount of luciferase activity was measured using a TopCount NXT Microplate Scintillation and Luminescence Counter (Packard, Meriden, Conn.) and normalized to the amount of phG-TK luciferase activity. Transfections were carried out in triplicate for each sample, and each experiment was repeated three times.

[6] = female mice, 72 μg peritoneal injection once, 12 hrs
[7] = in vivo, only one administration
[8] = primary hepatocytes in culture, mRNA

activities of alkaline phosphotase, SGPT and SGOT in sera ([1]; female mice, 72 μg peritoneal injection once): did not increase
water solubility [2]: water soluble
water solubility ([2]; listed as 25-hydroxycholesterol 3-sulfate): water-soluble
nuclear PPARγ fluorescence intensities (PPARγ [4]): increased
Compound: C[C@H](CCCC(C)(C)O)[C@H]1CC[C@H]2[C@@H]3CC=C4C[C@@H](OS(=O)(=O)O)CC[C@]4(C)[C@H]3CC[C@]12C [25HC3S, 5-cholesten-3β, 25-diol 3-sulphate]
decrease of cholesterol levels in serum [1, 6]: 15%
decrease of triglycerides in serum [1, 6]: 40%
HDL [1, 7]: significantly increases
decrease of serum cholesterol and triglyceride [1, 7]: 20%
decrease of HMG CoA reductase protein level (HMG CoA reductase): 50%
increased expression of ABCA1 [3, 8]: 2 fold
increased expression of ABCG5 [3, 8]: 1.6 fold
increased expression of ABCG8 [3, 8]: 3 fold
expression of ABCG1 ([3]; primary hepatocytes, compared with control cells): did not change
PPARγ reporter gene activities in the presence of the antagonist T0070907 (PPARγ [5]; H441, ACOX-PPRE reporter and PPARγ co-overexpression, 1 μM T0070907): failed
PPRE activity relative to rosiglitazone (PPARγ [5]; at 25 μM): reached to a similar levels as that induced by the PPARγ agonist rosiglitazone
